Where two headings read alike, the source gives them in different places.
Key:
Format in all cases: biochemical
[1] = biological target: T1, opioid receptor delta (Homo sapiens, UniProt P41143); assay: GTPγ[35S] binding assay, antagonism of BW-373U86
T1 construct: expressed in transfected cells
Description: (§1) Membranes were prepared from cells as described (Bass et al, 1996). GTPγ[5S] binding assays were performed in a 96 well FlashPlate™ format in duplicate using […] GTPγ[^35S] and 5 μg membrane per well in assay buffer composed of 50 mM Tris HCl, pH 7.4, 5 mM MgCl2, 1 mM EDTA, 100 mM NaCl, 30 μM GDP, 0.1% bovine serum albumin and the following protease inhibitors: 100 μg/ml bacitracin, 100 μg/ml benzamidine, 5 μg/ml aprotinin, 5 μg/ml leupeptin. The assay mix was then incubated at 30° C. with increasing concentrations of antagonist (10^−10 M to 10^−5 M) for 10 minutes and challenged with the agonists BW-373U86 (1 nM), dynorphin-A (10 nM), […] (1 μM) for opioid receptors delta, kappa, and mu, respectively. The assays were performed at 30° C. for one hour. The FlashPlates were then centrifuged at 2000×g for 10 minutes. Stimulation of GTPγ[^35S] binding was then quantified using a Wallac Microbeta and Ki calculations were done using Prism™ by Graphpad.

[2] = biological target: T2, opioid receptor kappa (Homo sapiens, UniProt P41145); assay: GTPγ[35S] binding assay, antagonism of dynorphin-A
T2 construct: expressed in transfected cells
T2 sequence (P41145 whole entry): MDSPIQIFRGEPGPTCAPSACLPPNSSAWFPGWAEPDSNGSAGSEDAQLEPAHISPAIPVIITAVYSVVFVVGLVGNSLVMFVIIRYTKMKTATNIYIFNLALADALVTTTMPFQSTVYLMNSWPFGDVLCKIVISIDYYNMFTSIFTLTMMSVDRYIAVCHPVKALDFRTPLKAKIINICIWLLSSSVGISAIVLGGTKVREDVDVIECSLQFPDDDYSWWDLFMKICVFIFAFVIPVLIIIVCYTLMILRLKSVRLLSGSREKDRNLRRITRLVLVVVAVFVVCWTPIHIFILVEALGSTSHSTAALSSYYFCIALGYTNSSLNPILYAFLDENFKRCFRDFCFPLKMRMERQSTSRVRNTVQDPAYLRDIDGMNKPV
Description: as §1

[3] = biological target: T3, opioid receptor mu (Homo sapiens, UniProt P35372); assay: GTPγ[35S] binding assay, antagonism of endorphin
T3 construct: expressed in transfected cells
T3 sequence (P35372 whole entry): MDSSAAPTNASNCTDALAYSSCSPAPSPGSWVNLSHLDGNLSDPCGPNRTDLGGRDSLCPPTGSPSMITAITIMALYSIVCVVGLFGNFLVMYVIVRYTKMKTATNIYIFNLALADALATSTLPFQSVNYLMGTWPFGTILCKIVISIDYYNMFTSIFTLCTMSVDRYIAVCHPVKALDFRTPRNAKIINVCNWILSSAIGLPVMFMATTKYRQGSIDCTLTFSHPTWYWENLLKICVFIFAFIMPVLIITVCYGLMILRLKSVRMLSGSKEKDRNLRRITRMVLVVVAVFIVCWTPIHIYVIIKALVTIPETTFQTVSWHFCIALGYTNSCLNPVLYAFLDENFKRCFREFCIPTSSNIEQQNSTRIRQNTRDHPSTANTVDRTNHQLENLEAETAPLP
Description: as §1

[4] = average Ki, antagonism of BW-373U86 (1 nM) stimulated GTPγ[35S] binding, delta opioid receptor membranes, read-out: Delta functional (GTPγ[35S] binding Ki)
[5] = average Ki, antagonism of dynorphin-A (10 nM) stimulated GTPγ[35S] binding, kappa opioid receptor membranes, read-out: Kappa functional (GTPγ[35S] binding Ki)
[6] = average Ki, antagonism of endorphin (1 μM) stimulated GTPγ[35S] binding, mu opioid receptor membranes, read-out: Mu functional (GTPγ[35S] binding Ki)
[7] = read-out: Delta functional (GTPγ[35S] binding Ki)
[8] = read-out: Kappa functional (GTPγ[35S] binding Ki)
[9] = read-out: Mu functional (GTPγ[35S] binding Ki)
[10] = read-out: Delta functional Ki (GTPγ[35S] binding)
[11] = read-out: Kappa functional Ki (GTPγ[35S] binding)
[12] = read-out: Mu functional Ki (GTPγ[35S] binding)
[13] = average Ki, antagonism of dynorphin-A (10 nM) at kappa opioid receptor, read-out: Kappa functional Ki (GTPγ[35S] binding)
[14] = average Ki, antagonism of endorphin (1 μM) at mu opioid receptor, read-out: Mu functional Ki (GTPγ[35S] binding)

T1 sequence (P41143 whole entry): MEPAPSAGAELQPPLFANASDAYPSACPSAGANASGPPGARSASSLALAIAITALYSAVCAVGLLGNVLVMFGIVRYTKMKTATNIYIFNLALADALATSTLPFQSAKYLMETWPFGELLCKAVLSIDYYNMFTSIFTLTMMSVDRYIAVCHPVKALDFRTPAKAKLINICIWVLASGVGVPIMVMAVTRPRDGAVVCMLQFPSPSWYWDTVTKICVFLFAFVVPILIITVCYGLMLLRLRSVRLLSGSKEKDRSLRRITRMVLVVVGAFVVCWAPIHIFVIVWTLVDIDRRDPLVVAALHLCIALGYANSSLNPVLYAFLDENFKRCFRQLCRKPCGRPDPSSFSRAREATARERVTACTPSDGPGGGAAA

Row | Ki [2, 5] [nM] | Ki [3, 6] [nM] | Ki [2, 11] [nM] | Ki [3, 12] [nM] | SMILES | also measured
1 | 28.8 | 4.64 |  |  | CC(C)CCNCc1ccc(-c2cccc(C(N)=O)c2)c(C#N)c1 [1A-04] | Ki [1, 4]: 13.8 nM
2 |  |  | 2.52 | 7.83 | CC(C)CCNCc1ccc(-c2ccc(C(N)=O)cc2Cl)c(Cl)c1 [4B-66] | Ki [1, 10]: 7.52 nM
3 | 114 | 154 |  |  | CC(C)CCNCc1ccc(-c2cccc(C(N)=O)c2)cn1 [1C-01] | Ki [1, 4]: 22 nM
4 | 24.8 | 17.8 |  |  | Cc1cc(CNCCC(C)C)ccc1-c1ccc(C(N)=O)cc1 [1B-01] | Ki [1, 4]: 13.6 nM
5 | 14.7 | 43.1 |  |  | Cc1cc(C(N)=O)ccc1-c1ccc(CNCCC(C)C)cn1 [1D-02] | Ki [1, 4]: 4.33 nM
6 |  |  | 3.97 | 12.1 | CC(C)CCNCc1ccc(-c2ccc(C(N)=O)cc2Cl)cc1F [4B-64] | Ki [1, 10]: 5.64 nM
7 | 11.5 | 1.49 |  |  | Cc1cc(CNCCC(C)C)ccc1-c1cccc(C(N)=O)c1 [1A-01] | 
8 |  |  | 14.7 | 121 | COc1cc(C(N)=O)ccc1-c1ccc(CNCCC(C)C)cc1 [4B-46] | 
9 | 9.84 | 0.95 |  |  | CC(C)CCNCc1ccc(-c2cccc(C(N)=O)c2)c(Cl)c1 [4A-05] | 

More lines, now with the values behind:

Row | SMILES | Ki [2, 5] [nM] | Ki [3, 6] [nM] | Ki [2, 11] [nM] | Ki [3, 12] [nM] | also measured
10 | NC(=O)c1cc(-c2ccc(CNC3Cc4ccccc4C3)cc2)ccc1F [4A-03] |  |  |  |  | Ki [1, 7]: 51.9 nM; Ki [2, 8]: 60.2 nM; Ki [3, 9]: 25.2 nM
11 | Cc1cc(CNCC2CCOCC2)ccc1-c1ccc(C(N)=O)cc1C [4B-71] |  |  | 6.91 | 8.37 | Ki [1, 10]: 6.2 nM
12 | CC(C)CCNCc1ccc(-c2cccc(NS(C)(=O)=O)c2)c(C#N)c1 [8A-03] |  |  |  |  | Ki ([1]; average Ki, antagonism of BW-373U86 (1 nM) at delta opioid receptor, read-out: Delta functional Ki (GTPγ[35S] binding)): 18.4 nM; Ki [2, 13]: 13.7 nM; Ki [3, 14]: 1.16 nM
13 | CC(C)CCNCc1ccc(-c2ccc(C(N)=O)cc2C(F)(F)F)cc1 [4B-02] |  |  |  |  | Ki [1, 7]: 15.4 nM; Ki [2, 8]: 29.7 nM; Ki [3, 9]: 57.2 nM
14 | CC(C)CCNCc1cc(Cl)c(-c2cccc(C(N)=O)c2)c(Cl)c1 [1A-03] | 3.76 | 1.2 |  |  | Ki [1, 4]: 4.87 nM
15 | Cc1cc(CNC2Cc3ccccc3C2)cc(Cl)c1-c1ccc(C(N)=O)cc1Cl [4B-82] |  |  | 1.77 | 0.0287 | Ki [1, 10]: 0.15 nM
16 | CC(C)CCNCc1ccc(-c2cc(F)cc(C(N)=O)c2)cc1 [4A-04] | 60.1 | 92.1 |  |  | Ki [1, 4]: 21.4 nM
17 | NC(=O)c1ccc(-c2ccc(CNCCC3CCOCC3)cc2)c(Cl)c1 [4B-37] |  |  | 4.61 | 13.7 | Ki [1, 10]: 60.3 nM
18 | NC(=O)c1ccc(-c2ccc(CNCCC3CCOCC3)cc2Cl)c(Cl)c1 [4B-67] |  |  | 3.62 | 7.22 | Ki [1, 10]: 2.95 nM
19 | CC(C)CCNCc1cc(F)c(-c2cccc(C(N)=O)c2)cc1F [1A-08] | 87.3 | 70.9 |  |  | Ki [1, 4]: 3160 nM
20 | CC(C)CCNCc1ccc(-c2c(F)cc(C(N)=O)cc2F)cc1 [4B-12] |  |  |  |  | Ki [1, 7]: 16.9 nM; Ki [2, 8]: 26.8 nM; Ki [3, 9]: 48.4 nM
21 | Cc1cc(C(N)=O)cc(C)c1-c1ccc(CNCCC(C)C)cc1 [4B-14] |  |  |  |  | Ki [1, 7]: 6.27 nM; Ki [2, 8]: 29.6 nM; Ki [3, 9]: 86.5 nM
22 | CC1(C)OCC(CNCc2ccc(-c3cccc(C(N)=O)c3)c(Cl)c2)O1 (centres unmarked) [4A-10] | 31.3 | 8.49 |  |  | Ki [1, 4]: 353 nM
23 | NC(=O)c1cccc(-c2ccc(CNCCc3cscn3)cc2Cl)c1 [6A-02] |  |  | 473 | 12.4 | Ki [1, 10]: 23.5 nM
24 | Cc1cc(C(N)=O)ccc1-c1ccc(CN[C@H]2CCc3ccccc32)cc1 [4B-34] |  |  | 0.512 | 1.08 | Ki [1, 10]: 1.09 nM
25 | CC(C)CC[NH2+]Cc1ccc(-c2cccc(C(N)=O)c2)c(F)c1 [E5-01, (3′-Carbamoyl-2-fluoro-biphenyl-4-ylmethyl)-(3-methyl-butyl)-ammonium chloride] |  |  | 23 | 14 | 
26 | CC(C)CCNCc1ccc(-c2cccc(-c3ncn[nH]3)c2)c(Cl)c1 [7A-04] |  |  |  |  | Ki ([2]; average Ki, antagonism of dynorphin-A (10 nM) at kappa opioid receptor membranes, read-out: Kappa functional Ki (GTPγ[35S] binding)): 0.794 nM; Ki ([3]; average Ki, antagonism of endorphin (1 μM) at mu opioid receptor membranes, read-out: Mu functional Ki (GTPγ[35S] binding)): 0.162 nM
27 | CC(C)CCNCc1ccc(-c2cccc(NS(C)(=O)=O)c2)cc1 [8A-01] |  |  |  |  | Ki [2, 13]: 45.9 nM; Ki [3, 14]: 14.6 nM
28 | Cc1cc(NS(C)(=O)=O)ccc1-c1ccc(CNCCC(C)C)cc1 [8B-01] |  |  |  |  | Ki [2, 13]: 1450 nM; Ki [3, 14]: 715 nM

Reference: US7615651B2, “Diaryl, dipyridinyl and aryl-pyridinyl derivatives and uses thereof” (Pfizer Inc., priority 2006, dated 2009)
